What was measured:
[1] = target: Integrase (Human immunodeficiency virus 1); assay: Inhibitory concentration against human immuno deficiency virus type 1 integrase (3'-processing)
[2] = target: Integrase (Human immunodeficiency virus 1); assay: Inhibitory concentration against human immuno deficiency virus type 1 integrase (Strand Transfer)

SMILES	IC50 [1]	IC50 [2]
O=C(CN1C(=O)/C(=C/c2ccccc2Cl)SC1=S)Nc1ccc([N+](=O)[O-])cc1O [2-{5-[1-(2-Chloro-phenyl)-meth-(Z)-ylidene]-4-oxo-2-thioxo-thiazolidin-3-yl}-N-(2-hydroxy-4-nitro-phenyl)-acetamide]	> 100 µM	> 100 µM
COc1cc(C(=O)Nc2ccc(O)c(C(=O)O)c2)cc(OC)c1OC [2-Hydroxy-5-(3,4,5-trimethoxy-benzoylamino)-benzoic acid]	> 100 µM	> 100 µM
O=C(CCN1C(=O)/C(=C/c2cccs2)SC1=S)Nc1cccc(O)c1 [N-(3-Hydroxy-phenyl)-3-{4-oxo-5-[1-thiophen-2-yl-meth-(Z)-ylidene]-2-thioxo-thiazolidin-3-yl}-propionamide]	> 100 µM	> 100 µM
Cc1ccc(/C=C2\SC(=S)N(CC(=O)Nc3ccc([N+](=O)[O-])cc3O)C2=O)cc1 [N-(2-Hydroxy-4-nitro-phenyl)-2-{4-oxo-2-thioxo-5-[1-p-tolyl-meth-(Z)-ylidene]-thiazolidin-3-yl}-acetamide]	> 100 µM	> 100 µM
O=C(CCN1C(=O)/C(=C/c2cccs2)SC1=S)Nc1ccc2ccccc2c1 [N-Naphthalen-2-yl-3-{4-oxo-5-[1-thiophen-2-yl-meth-(Z)-ylidene]-2-thioxo-thiazolidin-3-yl}-propionamide]	> 100 µM	> 100 µM
CCOC(=O)N1CCN(C(=O)CCN2C(=O)/C(=C/c3ccc(OC)c(OC)c3)SC2=S)CC1 [4-(3-{5-[1-(3,4-Dimethoxy-phenyl)-meth-(Z)-ylidene]-4-oxo-2-thioxo-thiazolidin-3-yl}-propionyl)-piperazine-1-carboxylic acid ethyl ester]	> 100 µM	> 100 µM
CCOc1cc(C=C2SC(=S)N(NC(=O)c3ccccc3O)C2=O)ccc1O [N-{5-[1-(3-Ethoxy-4-hydroxy-phenyl)-meth-(Z)-ylidene]-4-oxo-2-thioxo-thiazolidin-3-yl}-2-hydroxy-benzamide]	70 µM	38 µM
Cc1ccc2nc(C(C#N)=Cc3ccc(-c4ccc(O)c(C(=O)O)c4)o3)[nH]c2c1 [5-{5-[(E)-2-Cyano-2-(5-methyl-1H-benzoimidazol-2-yl)-vinyl]-furan-2-yl}-2-hydroxy-benzoic acid]	16 µM	8 µM
O=C(CCN1C(=O)/C(=C/c2ccc3c(c2)OCO3)SC1=S)Nc1ccc2c(c1)OCO2 [N-Benzo[1,3]dioxol-5-yl-3-{5-[1-benzo[1,3]dioxol-5-yl-meth-(Z)-ylidene]-4-oxo-2-thioxo-thiazolidin-3-yl}-propionamide]	97 µM	93 µM
COc1cc(/C=C2\SC(=S)N(CC(=O)Nc3cc(Cl)ccc3O)C2=O)cc(OC)c1OC [N-(5-Chloro-2-hydroxy-phenyl)-2-{4-oxo-2-thioxo-5-[1-(3,4,5-trimethoxy-phenyl)-meth-(Z)-ylidene]-thiazolidin-3-yl}-acetamide]	32 µM	17 µM
O=C(CCN1C(=O)/C(=C/c2ccccc2Cl)SC1=S)Nc1ccc([N+](=O)[O-])cc1 [3-{5-[1-(2-Chloro-phenyl)-meth-(Z)-ylidene]-4-oxo-2-thioxo-thiazolidin-3-yl}-N-(4-nitro-phenyl)-propionamide]	> 100 µM	> 100 µM

More lines, now with the values ahead:

IC50 [1]	IC50 [2]	SMILES
38 µM	38 µM	O=C(CCN1C(=O)/C(=C/c2cccs2)SC1=S)Nc1ccc(O)c(C(=O)O)c1 [2-Hydroxy-5-(3-{4-oxo-5-[1-thiophen-2-yl-meth-(Z)-ylidene]-2-thioxo-thiazolidin-3-yl}-propionylamino)-benzoic acid]
97 µM	85 µM	COc1cc(/C=C2/SC(=S)N(CCC(=O)Nc3ccc(C(=O)O)cc3)C2=O)cc(OC)c1OC
> 100 µM	> 100 µM	COc1ccc(/C=C2\SC(=S)N(CCC(=O)Nc3cccc(C(=O)O)c3)C2=O)cc1
44 µM	35 µM	O=C(CCCN1C(=O)/C(=C\c2cccs2)SC1=S)Nc1ccc(O)c(C(=O)O)c1 [2-Hydroxy-5-(4-{4-oxo-5-[1-thiophen-2-yl-meth-(Z)-ylidene]-2-thioxo-thiazolidin-3-yl}-butyrylamino)-benzoic acid]
15 µM	11 µM	CCc1ccc(/C=C2\SC(=S)N(CCC(=O)Nc3ccc(O)c(C(=O)O)c3)C2=O)cc1 [5-(3-{5-[1-(4-Ethyl-phenyl)-meth-(Z)-ylidene]-4-oxo-2-thioxo-thiazolidin-3-yl}-propionylamino)-2-hydroxy-benzoic acid]
99 µM	100 µM	COc1ccccc1/C=C1/SC(=S)N(CCC(=O)Nc2ccc(O)cc2)C1=O [N-(4-Hydroxy-phenyl)-3-{5-[1-(2-methoxy-phenyl)-meth-(E)-ylidene]-4-oxo-2-thioxo-thiazolidin-3-yl}-propionamide]
100 µM	> 100 µM	Cc1ccc(/C=C2\SC(=S)N(CCC(=O)Nc3cccc(C(=O)O)c3)C2=O)cc1 [3-(3-{4-Oxo-2-thioxo-5-[1-p-tolyl-meth-(Z)-ylidene]-thiazolidin-3-yl}-propionylamino)-benzoic acid]
36 µM	23 µM	CC(/C=C1\SC(=S)N(CCC(=O)Nc2ccc(O)c(C(=O)O)c2)C1=O)=C\c1ccccc1 [2-Hydroxy-5-(3-{5-[(E)-2-methyl-3-phenyl-prop-2-en-(Z)-ylidene]-4-oxo-2-thioxo-thiazolidin-3-yl}-propionylamino)-benzoic acid]
66 µM	44 µM	O=C(O)c1ccc(S(=O)(=O)c2ccc3c(c2)C(=O)N(c2ccc(O)c(C(=O)O)c2)C3=O)cc1 [5-[5-(4-Carboxy-benzenesulfonyl)-1,3-dioxo-1,3-dihydro-isoindol-2-yl]-2-hydroxy-benzoic acid]
83 µM	44 µM	Cc1ccc(/C=C2\SC(=S)N(CCC(=O)Nc3ccc(S(=O)(=O)Nc4nccs4)cc3)C2=O)cc1 [3-{4-Oxo-2-thioxo-5-[1-p-tolyl-meth-(Z)-ylidene]-thiazolidin-3-yl}-N-[4-(thiazol-2-ylsulfamoyl)-phenyl]-propionamide]
59 µM	75 µM	O=C(CN1C(=O)/C(=C2\SC(=S)N(CC(=O)Nc3ccc(C(=O)O)cc3)C2=O)SC1=S)Nc1ccc(C(=O)O)cc1 [4-{5-[3-(4-carboxyphenylcarbamoylmethyl)-4-oxo-2-thioxo-1,3-thiazolan-5-yliden]-4-oxo-2-thioxo-1,3-thiazolan-3-ylmethylcarboxamido}benzoic acid]
> 100 µM	> 100 µM	CCc1ccc(/C=C2/SC(=S)N(CC(=O)Nc3cccc(C(=O)O)c3)C2=O)cc1 [3-(2-{5-[1-(4-Ethyl-phenyl)-meth-(Z)-ylidene]-4-oxo-2-thioxo-thiazolidin-3-yl}-acetylamino)-benzoic acid]
98 µM	> 100 µM	Cc1ccc(/C=C2/SC(=S)N(CC(=O)Nc3cccc(C(=O)O)c3)C2=O)cc1 [3-(2-{4-Oxo-2-thioxo-5-[1-p-tolyl-meth-(Z)-ylidene]-thiazolidin-3-yl}-acetylamino)-benzoic acid]
59 µM	69 µM	O=C(CN1C(=O)/C(=C2\SC(=S)N(CC(=O)Nc3ccc(O)cc3)C2=O)SC1=S)Nc1ccc(O)cc1 [N-(4-Hydroxy-phenyl)-2-{(E)-3''-[(4-hydroxy-phenylcarbamoyl)-methyl]-4,4''-dioxo-2,2''-dithioxo-[5,5'']bithiazolidinyliden-3-yl}-acetamide]
